# In patent US12186303B2, “Feed additive for cattle comprising n-acetyl-l-tryptophan as active ingredient” (CJ CHEILJEDANG CORPORATION, priority 2018, dated 2025):
# “Also recorded” adds a separate entry of the source.
# What was measured:
# [1] = system: genes related to muscle metabolism (MYF6, MyoD, and Desmin) and fat metabolism (PPARr, CEBPa, and FABP4) of the loin tissue; assay: Real-time PCR of gene expression related to loin tissue development under cold stress conditions; format: in vivo, Korean native cattle
# Source text: After grouping the animals by statistical analysis of initial body weights, the animals were bred in 1.0×1.5 m^2 individual pens during the experiment period. The feed was offered based on an amount of dry matter of daily total mixed ration (TMR) per head. After 7 days of an adaptation period for N-acetyl-L-tryptophan (NALT), a mixture of 0.1% N-acetyl-L-tryptophan (NALT) and the total mixed ration was fed to individual animals every morning at 8 a.m. for 6 weeks, and water was available ad libitum. Total amounts of L-tryptophan ingested by the control and NALT-treated group by feeding NALT were 7.37 g/day/head and 16.26 g/day/head, respectively. The experiment was performed such that the NALT-treated group ingested 8.89 g/day/head more L-tryptophan than that of the control. Meanwhile, results of growth performance analysis (body weight and average feed intake) and genetic analysis of loin tissue were obtained by statistically comparing and analyzing significant differences between the control and the NALT-treated group, and results of hematological analysis were obtained via statistical comparison and analysis depending on NALT treatment, experiment period (days), and interaction (treatment×days). These numerical values were expressed as average values, and a significance test was performed at the 5% level using Student's t-test by using the JMP 5.0 software package (SAS Institute Inc., Cary, NC, USA). Samples of loin tissue of the sentinel animals were obtained at the final day of the experiment (day 48) using a biopsy gun for large animals (TNT Research Co., Ltd., Gyeonggi-do, Republic of Korea), added to a 2 mL tube, and incubated in liquid nitrogen gas. After extracting RNA from each tissue sample, real-time PCR was conducted to analyze expression levels of genes related to muscle metabolism (MYF6, MyoD, and Desmin) and fat metabolism (PPARr, CEBPa, and FABP4) of the loin tissue of each animal.
# [2] = system: genes related to fat differentiation (PPARr, CEBPa, FABP4, LPL, and SCD) and muscle differentiation (MYF6, MyoD, and MyoG) of the loin tissue; assay: Real-time PCR of gene expression related to loin tissue development under heat stress conditions; format: in vivo, Korean native cattle
# Source text: After grouping the animals by statistical analysis of initial body weights, the animals were bred in 1.0×1.5 m^2 individual pens during the experiment period. The feed was offered based on an amount of dry matter of daily total mixed ration (TMR) per head. After 7 days of an adaptation period for N-acetyl-L-tryptophan (NALT), a mixture of 0.1% N-acetyl-L-tryptophan (NALT) and the total mixed ration was fed to individual animals every morning at 8 a.m. for 6 weeks, and water was available ad libitum. Total amounts of L-tryptophan ingested by the control and the experimental group (NALT-treated group) by feeding NALT were 6.0 g/day/head and 18.2 g/day/head, respectively. The experiment was performed such that the NALT-treated group ingested 12.2 g/day/head more L-tryptophan than the control. Meanwhile, results of growth performance analysis (body weight and average feed intake) and genetic analysis of loin tissue were obtained by statistically comparing and analyzing significant differences between the control and the NALT-treated group, and results of hematological analysis were obtained via statistical comparison and analysis depending on NALT treatment, experiment period (days), and interaction (treatment×days). These numerical values were expressed as average values, and a significance test was performed at the 5% level using Student's t-test by using a JMP 5.0 software package (SAS Institute Inc., Cary, NC, USA). Samples of loin tissue of the sentinel animals were obtained on the final day of the experiment (week 10). The samples were obtained using a biopsy gun for animals (TNT Research Co., Ltd., Gyeonggi-do, Republic of Korea), added to a 2 mL tube, and incubated in liquid nitrogen gas. After extraction of RNA from each tissue sample, real-time PCR was conducted to analyze expression levels of genes related to fat differentiation (PPARr, CEBPa, FABP4, LPL, and SCD) and muscle differentiation (MYF6, MyoD, and MyoG) of the loin tissue of each animal. Total RNA was isolated using the TRIzol RNA isolation protocol, and the amount of RNA was measured using a NanoDrop 1000 (Thermo Scientific, Seoul, Republic of Korea). The RNA integrity (RIN) was estimated using an RNA Nano 6000 Assay Kit of the Agilent Bioanalyzer 2100 system (Agilent Technologies, Richardson, USA), and an obtained RNA integrity number (RIN) was 6.5±0.27. After synthesizing cDNA from mRNA, real-time PCR was conducted to measure expression levels of the genes.
# [3] = 0.1% NALT, day 48, control = 1.000
# [4] = 0.1% NALT, week 10, control = 1.00000
structure (smiles),measurement,setting,value
"CC(=O)N[C@@H](Cc1c[nH]c2ccccc12)C(=O)O [NALT, N-acetyl-L-tryptophan]","Expression of genes (MYF6, MyoD, and Desmin) related to muscle metabolism of loin tissue compared with the control",[1],did not show a statistically significant difference; also recorded: No statistically significant difference
same,"Expression of genes (PPARr, CEBPa, and FABP4) related to fat metabolism of loin tissue compared with the control",[1],lower
same,CEBPa expression level in loin tissue,[1]; [3],0.293
same,Desmin expression level in loin tissue,[1]; [3],0.871
same,FABP4 expression level in loin tissue,[1]; [3],0.233
same,MYF6 expression level in loin tissue,[1]; [3],0.834
same,MyoD expression level in loin tissue,[1]; [3],0.857
same,PPARr expression level in loin tissue,[1]; [3],0.274
same,Gene expression level of SCD compared to the control,[2],tended to be higher
same,C/EBPα expression level in loin tissue,[2]; [4],0.8053
same,FABP4 expression level in loin tissue,[2]; [4],1.501
same,LPL expression level in loin tissue,[2]; [4],1.774
same,MYF6 expression level in loin tissue,[2]; [4],1.093
same,MyoD expression level in loin tissue,[2]; [4],1.045
same,MyoG expression level in loin tissue,[2]; [4],2.086
same,PPARγ expression level in loin tissue,[2]; [4],1.301
same,SCD expression level in loin tissue,[2]; [4],1.448
same,Expression levels of MYF6 and MyoG and of lipolysis/fat transport genes (FABP4 and LPL) in loin tissue compared to the control,[2]; p<0.05,higher
same,Expression of muscle differentiation-related gene (MyoD) and fat differentiation-related genes (C/EBPα and PPARγ) compared to the control,[2]; p>0.05,No statistically significant difference
